Source: ChEMBL document CHEMBL6083210, “Exploring apoptotic induction of malabaricone A in triple-negative breast cancer cells: an acylphenol phyto-entity isolated from the fruit rind of Myristica malabarica Lam” (RSC Med Chem, 2024)

How the values were obtained:
Format in all cases: functional, cell-based
[1] = tested on: MCF-10A; experiment: Antiproliferative activity against human MCF-10A cells assessed as reduction in cell viability incubated for 24 hrs by MTT assay
[2] = tested on: SK-BR-3; experiment: Antiproliferative activity against human SK-BR-3 cells assessed as reduction in cell viability incubated for 24 hrs by MTT assay; settings: SK-BR-3, 24 h
[3] = tested on: MDA-MB-231; experiment: Antiproliferative activity against human MDA-MB-231 cells assessed as reduction in cell viability incubated for 24 hrs by MTT assay; settings: MDA-MB-231, 24 h

Structure (SMILES)	IC50 [1] [µM]	IC50 [2] [µM]	IC50 [3] [µM]
O=C(CCCCCCCCc1ccc(O)cc1)c1c(O)cccc1O [MALABARICONE B]	62	13.5	19.1
O=C(CCCCCCCCc1ccc(O)c(O)c1)c1c(O)cccc1O [MALABARICONE C]	97.3	16.4	19.6
